We go through one compound from patent US20240208961A1, “EIF4E INHIBITORS AND USES THEREOF” (PIC Therapeutics, Inc., priority 2022, published 2024).

What all share (format): cell-based
One assay deals with MM.1S cells. As to the kind of experiment: 5 day viability assay in MM.1S cells, I-11 and dexamethasone (Example 7). As for the experimental part:
(§1) Compound I-11 was studied in the context of dexamethasone combinations, which is used clinically in early Multiple Myeloma prior to the emergence of steroid resistance and is a common backbone therapy. The MM.1S cell line is a steroid sensitive line, and the MM.1R line is the corresponding cell line which has been driven to steroid resistance. The procedure for these studies was as follows:
(§2) Day 1: Cell Seeding and Compound Dosing
(§3) • Cells were seeded 2×10^5 in 96-well cell culture treated tissue culture plates: 87.5 μL/well; MM.1 S and MM.1R • A 5-fold serial dilution of each compound in DMSO (0-25 mM) was prepared in compound storage plates (stored at −80° C. if not to be used immediately). An 8-point curve was used for compound I-11, and a 6-point curve was used for dexamethasone (0-25 mM). • Cells were rinsed with 1% FBS Media and replaced with 87.5 μL media prior to dosing. • DMSO compound dilution series was diluted in 1% FBS media—2 μL compound in 123 μL media to give a 16× final concentration. Dosing across the plate columns 1-12 (compound I-11 0-400 μM), 6.25 μL 16× in media/well. Dosing down plate rows (columns 1-6 dexamethasone 0-400 μM), 6.25 μL 16× compound in media per well. • Cells were dosed with 12.5 μL for both compounds, with 2 replicates of dosing matrix per 96-well plate. Final volume cells and compound was 100 μL/well. • Media blank 100 μL/well×8 was set up. • All plates were incubated at 37° C.
(§4) Day 6: 5 Day Viability Assay
(§5) • Alamar Blue viability reagent was added (10 μL per well) and incubated for 3 hours at 37° C. prior to fluorescence detection (Ex560 nm/Em590 nm) on a Varioskan Lux multimode plate reader.

Another assay has as its system MCL-1 protein. Kind of assay: MCL-1 protein (eIF4E regulated) levels in multiple myeloma cell line MM.1R (FIG. 11B). Particulars: MM.1R cells, 2 hours.
A further assay deals with MM.1R cells. As to the kind of experiment: 5 day viability assay in MM.1R cells, I-11 and dexamethasone (Example 7). How it is done:
as §1, §2, §3, §4, §5

Molecules are shown by their SMILES.

A word on the IC50: it is the point on the concentration scale where inhibition reaches its midpoint. Take `CC(C)Cc1sc(Nc2ncc(-c3cccs3)cc2C(=O)O)nc1C(C)(C)C` [Compound I-11]: the IC50 came out at 0.423 µM in the assay with MM.1S cells (Homo sapiens, MM1.S, 120 h, MM.1S cells (steroid sensitive), 5 days, Alamar Blue, read-out: IC50 (μM), Viability Assessment (5 Days) in MM.1S Cells) and 0.179 µM with MM.1R cells (120 h, MM.1R cells (steroid resistant), 5 days, Alamar Blue, read-out: IC50 (μM), Viability Assessment (5 Days) in MM.1R Cells). The “viability of MM.1S cells” value in the assay with MM.1S cells (MM.1S cells, FIG. 12) is on record as “significant decreases in viability”. Further, the “impact on viability in combination with dexamethasone” value with MM.1S cells (MM.1S cells, dosing matrix I-11 x dexamethasone, FIG. 13) is given as “additive to dexamethasone”. Further, the “MCL-1 protein (eIF4E regulated) levels” value with MCL-1 protein was “reduces”. Besides, in the assay on MM.1R cells (MM.1R cells, FIG. 12), the “viability of MM.1R cells” value is reported as “significant decreases in viability”.
